Patent US5114925A, “Renin inhibitors containing the 2-[[(2R,3S)-3-amino-4-cyclohexyl-2-hydroxy-1-butyl]thio)alkanoyl moiety and the corresponding sulfoxide and sulfone derivatives” (Merck & Co., Inc., priority 1991, dated 1992)

target: T1, human renin (Homo sapiens, UniProt P00797); assay: plasma renin assay (radioimmunoassay of angiotensin-I released in human plasma); assay type: biochemical; conditions: human renin and human renin substrate in human plasma, 37° C., pH 6.9, angiotensin-I by radioimmunoassay; read-out: IC50 (the molar concentration required to cause 50% inhibition), renin inhibitory activity
T1 construct: added to human plasma (75 μl) containing EDTA; from tissue; host or cells: human plasma
T1 sequence (P00797 67-406): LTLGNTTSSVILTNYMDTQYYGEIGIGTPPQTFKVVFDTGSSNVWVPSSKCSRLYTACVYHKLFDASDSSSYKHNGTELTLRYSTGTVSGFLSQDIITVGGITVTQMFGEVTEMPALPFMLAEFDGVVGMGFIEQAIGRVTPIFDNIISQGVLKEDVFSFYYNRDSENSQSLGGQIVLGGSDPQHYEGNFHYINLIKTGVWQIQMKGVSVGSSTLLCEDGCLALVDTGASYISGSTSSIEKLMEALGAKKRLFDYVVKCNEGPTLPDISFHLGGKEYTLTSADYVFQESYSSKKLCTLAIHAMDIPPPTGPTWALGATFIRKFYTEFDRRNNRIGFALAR
Experimental: It is based on the measurement, by radiommunoassay, of Angiotensin-I released from human renin substrate by human renin in human plasma. The inhibitor is dissolved in 0.01N HCl (10 μl) and added to human plasma (75 μl) containing EDTA, and angiotensin-I antibody ([…]) in 3M-Tris.HCl buffer (pH 6.9).
Free and bound ligand are separated by the addition of dextran-coated charcoal, and the amount of bound radio-ligand determined in a gamma counter.

Row | Compound | IC50
1 | CC(C)(C)OC(=O)N[C@@H](Cc1ccccc1)C(=O)N[C@@H](Cc1cnc[nH]1)C(=O)N[C@@H](CC1CCCCC1)[C@@H](O)CS(=O)(=O)CC(=O)NCCN1CCOCC1 | 0.0094 µM
2 | CC(C)CC(SC[C@H](O)[C@H](CC1CCCCC1)NC(=O)[C@H](Cc1c[nH]cn1)NC(=O)[C@H](Cc1ccccc1)NC(=O)OC(C)(C)C)C(=O)NCCN1CCOCC1 (mixture of isomers) [4-[2-[[(2RS)-2-[[(2R,3S)-3-(Boc-L-phenylalanyl-L-histidylamino)-4-cyclohexyl-2-hydroxy-1-butyl]thio]methylpentanoyl]-4-methylpentanoyl]amino]ethyl]morpholine] | 0.073 µM
3 | CC(C)(C)OC(=O)N[C@@H](Cc1ccccc1)C(=O)N[C@@H](Cc1c[nH]cn1)C(=O)N[C@@H](CC1CCCCC1)[C@@H](O)CS(=O)(=O)CC(=O)NC1CCN(Cc2ccccc2)CC1 [1-benzyl-4-[2-[X-sulfonyl]acetamido]piperidine] | 0.034 µM
4 | CC(C)(C)OC(=O)N[C@@H](Cc1ccccc1)C(=O)N[C@@H](Cc1c[nH]cn1)C(=O)N[C@@H](CC1CCCCC1)[C@@H](O)CSCC(=O)O [2-[X-thio]acetic acid, 2-[[(2R,3S)-3-(Boc-L-phenylalanyl-L-histidylamino)-4-cyclohexyl-2-hydroxy-1-butyl]thio]acetic acid] | 0.904 µM
5 | CC(C)(C)OC(=O)N[C@@H](Cc1ccccc1)C(=O)N[C@@H](Cc1c[nH]cn1)C(=O)N[C@@H](CC1CCCCC1)[C@@H](O)CS(=O)(=O)CC(=O)NC1C[N+]2([O-])CCC1CC2 (stereo partly shown) [3-[2-[X-sulfonyl]acetamido]quinuclidine-N-oxide] | 0.0042 µM
6 | CC(C)(C)OC(=O)NC(Cc1ccccc1)C(=O)NC(Cc1cnc[nH]1)C(=O)NC(CC1CCCCC1)C(O)CSCC(=O)NC1CN2CCC1CC2 (stereo not shown) [3-[2-[X-thio]acetamido}quinuclidine] | 0.029 µM
7 | CC(C)(C)OC(=O)N[C@@H](Cc1ccccc1)C(=O)N[C@@H](Cc1cnc[nH]1)C(=O)N[C@@H](CC1CCCCC1)[C@@H](O)CSCC(=O)NCCN1CCOCC1 [4-[2-[2-[X-thio]acetamido]ethyl]morpholine] | 0.04 µM
8 | CC(C)(C)S(=O)(=O)C[C@@H](Cc1ccccc1)C(=O)N[C@@H](Cc1c[nH]cn1)C(=O)N[C@@H](CC1CCCCC1)[C@@H](O)CS(=O)(=O)CC(=O)NCCN1CCOCC1 [4-[2-[2-[[(2R,3S)3-[N^α -[(S)-2-[(t-Butylsulfonyl)-methyl]-3-phenylpropionyl]-L-histidylamino]-4-cyclohexyl-2-hydroxy-1-butyl]sulfonyl]-acetamido]ethyl]morpholine] | 0.0072 µM
9 | CN1CCN(C(=O)CS(=O)(=O)C[C@H](O)[C@H](CC2CCCCC2)NC(=O)[C@H](Cc2cnc[nH]2)NC(=O)[C@H](Cc2ccccc2)NC(=O)OC(C)(C)C)CC1 [4-[2-[X-sulfonyl]acetyl]-1-methylpiperazine] | 0.02 µM
10 | CN1CCN(C(=O)CSC[C@H](O)[C@H](CC2CCCCC2)NC(=O)[C@H](Cc2cnc[nH]2)NC(=O)[C@H](Cc2ccccc2)NC(=O)OC(C)(C)C)CC1 [4-[2-[X-thio]acetyl]-1-methylpiperazine, 4-[2-[[(2R,3S)-3-(Boc-L-phenylalanyl-L-histidylamino)-4-cyclohexyl-2-hydroxy-1-butyl]thio]acetyl]-1-methylpiperazine] | 0.029 µM
11 | CC(C)CC(C(=O)NCCN1CCOCC1)S(=O)(=O)C[C@H](O)[C@H](CC1CCCCC1)NC(=O)[C@H](Cc1c[nH]cn1)NC(=O)[C@H](Cc1ccccc1)NC(=O)OC(C)(C)C (stereo partly shown) [4-[2-[[2 ---- RS )-2 [X-sulfonyl]-4-methyl-pentanoyl]amino]ethyl]morpholine] | 0.077 µM
12 | CC(C)CC(C(=O)NCCN1CCOCC1)[S+]([O-])C[C@H](O)[C@H](CC1CCCCC1)NC(=O)[C@H](Cc1cnc[nH]1)NC(=O)[C@H](Cc1ccccc1)NC(=O)OC(C)(C)C (stereo partly shown) [4-[2-[[(2 ---- RS )-2-[X-sulfinyl]-4-methyl-pentanoyl]amino]ethyl]morpholine] | 0.088 µM
13 | CC(C)(C)OC(=O)N[C@@H](Cc1ccccc1)C(=O)N[C@@H](Cc1c[nH]cn1)C(=O)N[C@@H](CC1CCCCC1)[C@@H](O)CSCC(=O)NCc1ccncc1 [4-[[2-[X-thio]acetamido]methyl]pyridine] | 0.092 µM
14 | CC(C)(C)OC(=O)N[C@@H](Cc1ccccc1)C(=O)N[C@@H](Cc1cnc[nH]1)C(=O)N[C@@H](CC1CCCCC1)[C@@H](O)C[S+]([O-])CC(=O)NCCN1CCOCC1 (stereo partly drawn) [4-[[(2R,3S)-3-(Boc-L-phenylalanyl-L-histidylamino)-4-cyclohexyl-2-hydroxy-1-butyl]-sulfinyl]acetyl]amino]ethyl]morpholine] | 0.019 µM
15 | CNCCN(C)C(=O)CSC[C@H](O)[C@H](CC1CCCCC1)NC(=O)[C@H](Cc1c[nH]cn1)NC(=O)[C@H](Cc1ccccc1)NC(=O)OC(C)(C)C [N-[2-[[(2R,3S)-3-(Boc-L-phenylalanyl-L-histidylamino)-4-cyclohexyl-2-hydroxy-1-butyl]thio]acetyl]-N,N'-dimethylethylenediamine] | 0.161 µM
16 | CCOC(=O)CSC[C@H](O)[C@H](CC1CCCCC1)NC(=O)[C@H](Cc1cnc[nH]1)NC(=O)[C@H](Cc1ccccc1)NC(=O)OC(C)(C)C [ethyl 2-[X-thio]acetate, ethyl 2-[[(2R,3S) 3-(Boc-L-phenylalanyl-L-histidylamino)-4-cyclohexyl-2-hydroxy-1-butyl]thio]acetate] | 0.058 µM
